Assay results: patent US20200362305A1, “EFFICIENT INFECTION OF PRIMARY KER[…] HPV16” (Board of Supervisors of Louisiana State University and …, priority 2018, published 2020)

Test system: HPV16
Experiment: HPV16 infection of primary keratinocytes by ECM-to-cell transfer, cells grown with or without Y-27632
Format: cell-based, human
Conditions: primary cells grown in the presence or absence of the Rho kinase inhibitor Y-27632
Procedure: Human embryonic kidney 293TT and HeLa cells were obtained from John Schiller and Daniel DiMaio, respectively. They were cultured in DMEM supplemented with 10% FBS, non-essential amino acids, antibiotics, and L-Glutamax. Spontaneously immortalized human keratinocytes HaCaT cells were purchased from the American Type Culture Collection (ATCC) and grown in low glucose DMEM containing 5% FBS and antibiotics. Human foreskin keratinocytes (HFKs) were derived from neonatal human foreskin epithelia and maintained in E medium containing mouse epidermal growth factor (EGF) and mitomycin-treated mouse 3T3 J2 fibroblasts. Pooled primary epithelial keratinocytes were also purchased from the ATCC (PCS-200-010) and used in some experiments. In early experiments where indicated, the inventors maintained and infected primary keratinocytes in the presence of the Rho kinase inhibitor (ROCK) Y-27632, which was reported to increase their lifespan. However, the ROCK inhibitor was excluded prior and during experiments involving long term culturing of infected primary cells. Stable cell lines containing HPV16 episomes were created by co-transfection of pEGFP-N1-HPV16 containing the HPV16 genome (W12 strain) with an expression vector for Cre recombinase and a Neomycin resistance plasmid. […]

`C[C@@H](N)[C@H]1CC[C@H](C(=O)Nc2ccncc2)CC1` [Y-27632] was tested, and the infection efficiency was “no significant difference”.
